This is an account of results in patent US10077289B2, “Cyclosporins modified on the MeBmt sidechain by heterocyclic rings” (priority 2015, dated 2018).

In brackets after ≈: the same amount, converted by molar mass. Where two headings read alike, the source gives them in different places. A value given as a limit tells only on which side of the number the result lay.

A short description of series [1]: Water Solubility Assay (measured in pH 7.8 buffer). It is filed as physicochemical. Conditions: 25 °C, pH 7.8, aqueous buffer, kinetic from dmso stock.
In series [2] the target is calcineurin/cyclophilin A (Homo sapiens (Human), UniProt P62937+P63098+Q08209). Description: Calcineurin Phosphatase (CaN) Assay (+CypA). It is filed as biochemical. Particulars: in the presence of Cyp A, 1:1 complex with inhibitor; read-out: Calcineurin Phosphatase (CaN) Assay (+CypA) IC50.
For series [3], the target named is Human recombinant cyclophilin A (Cyp A) (Homo sapiens (Human), UniProt P62937). The series is described as follows: Protease-free PPIase assay.

For the compound `CC[C@H]1NC(=O)[C@@H]([C@H](O)[C@H](C)CCCc2cnccn2)N(C)C(=O)[C@@H](C(C)C)N(C)C(=O)[C@@H](CC(C)C)N(C)C(=O)[C@@H](CC(C)C)N(C)C(=O)[C@H](C)NC(=O)[C@@H](C)NC(=O)[C@@H](CC(C)C)N(C)C(=O)[C@@H](C(C)C)NC(=O)[C@H](CC(C)C)N(C)C(=O)[C@@H](C)N(C)C1=O` [Compound 18, [(2S,3R,4R)-3-Hydroxy-4-methyl-2-(methylamino)-7-(pyrazin-2-yl)-heptanoic acid]^1 [(R)-methyl-Sar]^3 cyclosporin A], the solubility at 18 h in series [1] is 50 to 75 µM (≈ 64.1 to 96.2 µg/mL). Besides, the IC50 in series [2] is 5800 nM. For the same compound, the Ki in series [3] is 2.2 nM.
In series [1], `CC[C@H]1NC(=O)[C@@H]([C@H](O)[C@H](C)CCCc2ncccn2)N(C)C(=O)[C@@H](C(C)C)N(C)C(=O)[C@@H](CC(C)C)N(C)C(=O)[C@@H](CC(C)C)N(C)C(=O)[C@H](C)NC(=O)[C@@H](C)NC(=O)[C@@H](CC(C)C)N(C)C(=O)[C@@H](C(C)C)NC(=O)[C@H](CC(C)C)N(C)C(=O)CN(C)C1=O` [Compound 32, [(2S,3R,4R)-3-Hydroxy-4-methyl-2-(methylamino)-7-(pyrimidin-2-yl)-heptanoic acid]^1 cyclosporin A] had a solubility at 18 h of 75 to 100 µM (≈ 95.2 to 127 µg/mL). In addition, the IC50 in series [2] amounted to 3450 nM. The Ki in series [3] (read-out: Protease-free PPIase Assay Ki, human recombinant Cyp A, 10 °C) was 8.3 nM.
As for `CC[C@H]1NC(=O)[C@@H]([C@H](O)[C@H](C)CCCc2cccnn2)N(C)C(=O)[C@@H](C(C)C)N(C)C(=O)[C@@H](CC(C)C)N(C)C(=O)[C@@H](CC(C)C)N(C)C(=O)[C@H](C)NC(=O)[C@@H](C)NC(=O)[C@@H](CC(C)C)N(C)C(=O)[C@@H](C(C)C)NC(=O)[C@H](CC(C)C)N(C)C(=O)[C@@H](C)N(C)C1=O` [Compound 21, [(2S,3R,4R)-3-Hydroxy-4-methyl-2-(methylamino)-7-(pyridazin-3-yl)-heptanoic acid]^1 [(R)-methyl-Sar]^3 cyclosporin A], in series [1], the solubility at 18 h is greater than 100 µM. Moreover, the IC50 in series [2] was greater than 10000 nM. Further, the Ki in series [3] came out at 3.2 nM.
For `CC[C@H]1NC(=O)[C@@H]([C@H](O)[C@H](C)CCCc2csc(C)n2)N(C)C(=O)[C@@H](C(C)C)N(C)C(=O)[C@@H](CC(C)C)N(C)C(=O)[C@@H](CC(C)C)N(C)C(=O)[C@H](C)NC(=O)[C@@H](C)NC(=O)[C@@H](CC(C)C)N(C)C(=O)[C@@H](C(C)C)NC(=O)[C@H](CC(C)C)N(C)C(=O)[C@@H](C)N(C)C1=O` [Compound 13, [(2S,3R,4R)-3-Hydroxy-4-methyl-2-(methylamino)-7-(2-methyl-thiazol-4-yl)-heptanoic acid]^1 [(R)-methyl-Sar]^3 cyclosporin A] the same measures were 25 to 50 µM (≈ 32.5 to 65.1 µg/mL), 1450 nM and 3.2 nM.
For `CC[C@H]1NC(=O)[C@@H]([C@H](O)[C@H](C)CCCc2ccn(C)n2)N(C)C(=O)[C@@H](C(C)C)N(C)C(=O)[C@@H](CC(C)C)N(C)C(=O)[C@@H](CC(C)C)N(C)C(=O)[C@H](C)NC(=O)[C@@H](C)NC(=O)[C@@H](CC(C)C)N(C)C(=O)[C@@H](C(C)C)NC(=O)[C@H](CC(C)C)N(C)C(=O)[C@@H](C)N(C)C1=O` [Compound 25, [(2S,3R,4R)-3-Hydroxy-4-methyl-2-(methylamino)-7-(1-methylpyrazol-3-yl)heptanoic acid]^1 [(R)-methyl-Sar]^3 cyclosporin A] the same measures were greater than 100 µM, 1460 nM and 3.8 nM.
The corresponding values for `CC[C@H]1NC(=O)[C@@H]([C@H](O)[C@H](C)CCCc2cccnc2)N(C)C(=O)[C@@H](C(C)C)N(C)C(=O)[C@@H](CC(C)C)N(C)C(=O)[C@@H](CC(C)C)N(C)C(=O)[C@H](C)NC(=O)[C@@H](C)NC(=O)[C@@H](CC(C)C)N(C)C(=O)[C@@H](C(C)C)NC(=O)[C@H](CC(C)C)N(C)C(=O)CN(C)C1=O` [Compound 31, [(2S,3R,4R)-3-Hydroxy-4-methyl-2-(methylamino)-7-(pyridin-3-yl)-heptanoic acid]^1 cyclosporin A] are 50 to 75 µM (≈ 63.4 to 95.1 µg/mL), 3950 nM and 9.5 nM.

Usually solubility stands for the concentration that dissolves in the medium under given conditions. Usually IC50 stands for the point on the concentration scale where inhibition reaches its midpoint. The Ki is a measure of affinity in units of concentration, obtained from inhibition or displacement.
